Assay results as given in patent US20240116946A1 (Gilead Sciences, Inc., priority 2022, published 2024).

Tests used:
SARS-CoV-2-NLuc = assay: microbe, parasite or virus in culture; assay type: cell-based, SARS Coronavirus 2; conditions: Severe acute respiratory syndrome coronavirus, 48 h, read-out: MPro EC50
[1] = biological target: recombinant SARS-CoV-2 Main protease (Mpro) (Severe acute respiratory syndrome coronavirus 2 (2019-nCoV) (SARS-CoV-2), UniProt P0DTD1); assay: Cov Mpro Biochemical IC50 Assay; conditions: recombinant SARS-CoV-2 Mpro 7.5 nM, fluorogenic peptide substrate 40 μM; read-out: MPro IC50

Row | SMILES | EC50 (SARS-CoV-2-NLuc) | IC50 [1]
1 | N#CCCn1c(=O)n(-c2cncc3cccnc23)c(=O)c2sc(-c3ccccc3Cl)cc21 [Example 905] | 4.17 nM | 5.93 nM
2 | COc1cc(-c2cc3c(s2)c(=O)n(-c2cncc4ccc(C)nc24)c(=O)n3CCC#N)c(Cl)cc1F [Example 906] | 2.41 nM | 4.35 nM
3 | Cc1ccc2cncc(-n3c(=O)c4sc(-c5ccccc5Cl)cc4n(CCC#N)c3=O)c2n1 [Example 907] | 6.97 nM | 5.81 nM
4 | COc1cc(-c2cc3c(s2)c(=O)n(-c2cncc4c2CCCC4)c(=O)n3CCC#N)c(Cl)cc1F [Example 908] | 6.84 nM | 7.52 nM
5 | COc1cc(-c2cc3c(s2)c(=O)n(-c2cncc4nn(C)cc24)c(=O)n3CCC#N)c(Cl)cc1F [Example 909] | 12.3 nM | 5.94 nM
6 | CCn1ncc2cncc(-n3c(=O)c4sc(-c5cc(OC)c(F)cc5Cl)cc4n(CCC#N)c3=O)c21 [Example 910] | 4.35 nM | 4.34 nM
7 | COc1cc(-c2cc3c(s2)c(=O)n(-c2cncc4cnn(CC(F)F)c24)c(=O)n3CCC#N)c(Cl)cc1F [Example 911] | 11.8 nM | 13.2 nM
8 | COCCn1ncc2cncc(-n3c(=O)c4sc(-c5cc(OC)c(F)cc5Cl)cc4n(CCC#N)c3=O)c21 [Example 912] | 4.36 nM | 4.9 nM
9 | CCn1cc2cncc(-n3c(=O)c4sc(-c5cc(OC)c(F)cc5Cl)cc4n(CCC#N)c3=O)c2n1 [Example 913] | 4.53 nM | 4.31 nM
10 | COCCn1cc2cncc(-n3c(=O)c4sc(-c5cc(OC)c(F)cc5Cl)cc4n(CCC#N)c3=O)c2n1 [Example 914] | 10.9 nM | 4.76 nM
11 | COc1cc(-c2cc3c(s2)c(=O)n(-c2cncc4ncccc24)c(=O)n3CCC#N)c(Cl)cc1F [Example 915] | 19.4 nM | 8.9 nM
12 | COc1cc(-c2cc3c(s2)c(=O)n(-c2c(C)ccnc2F)c(=O)n3CCC#N)c(Cl)cc1F [Example 916] | 30.3 nM | 11.5 nM
13 | COc1cc(-c2cc3c(s2)c(=O)n(-c2cncc4cnccc24)c(=O)n3CCC#N)c(Cl)cc1F [Example 917] | 6.09 nM | 7.5 nM
14 | COc1cc(-c2cc3c(s2)c(=O)n(-c2cncc4nn(CC(F)(F)F)c(C)c24)c(=O)n3CCC#N)c(Cl)cc1F [Example 918] | 43.1 nM | 24.3 nM
15 | COc1cc(-c2cc3c(s2)c(=O)n(-c2cncc4c2c(C)nn4CC(F)(F)F)c(=O)n3CCC#N)c(Cl)cc1F [Example 919] | 366 nM | 926 nM
16 | COc1cc(-c2cc3c(s2)c(=O)n(-c2cncc4cccc(Cl)c24)c(=O)n3CCC#N)c(Cl)cc1F [Example 921] | 1.92 nM | 1.42 nM
17 | COc1cc(-c2cc3c(s2)c(=O)n(-c2cncc4cnsc24)c(=O)n3CCC#N)c(Cl)cc1F [Example 922] | > 1000 nM | 2.8 nM
18 | COc1cc(-c2cc3c(s2)c(=O)n(-c2cncc4ccncc24)c(=O)n3CCC#N)c(Cl)cc1F [Example 923, 3-[6-(2-chloro-4-fluoro-5-methoxy-phenyl)-3-(2,6-naphthyridin-4-yl)-2,4-dioxo-thieno[3,2-d]pyrimidin-1-yl]propanenitrile] | 2 nM | 4.3 nM
19 | COc1cc(-c2cc3c(s2)c(=O)n(-c2cncc(C4CC4)c2)c(=O)n3CCC#N)c(Cl)cc1F [Example 924] | 5.31 nM | 2.52 nM
20 | COc1cc(-c2cc3c(s2)c(=O)n(-c2cncc4c2c(C)nn4C)c(=O)n3CCC#N)c(Cl)cc1F [Example 925, 3-(6-(2-chloro-4-fluoro-5-methoxyphenyl)-3-(1,3-dimethyl-1H-pyrazolo[3,4-c]pyridin-4-yl)-2,4-dioxo-3,4-dihydrothieno[3,2-d]pyrimidin-1(2H)-yl)propanenitrile] | 6.55 nM | 6.13 nM
21 | COc1cc(-c2cc3c(s2)c(=O)n(-c2cncc4nn(C)c(C)c24)c(=O)n3CCC#N)c(Cl)cc1F [Example 926, 3-(6-(2-chloro-4-fluoro-5-methoxyphenyl)-3-(2,3-dimethyl-2H-pyrazolo[3,4-c]pyridin-4-yl)-2,4-dioxo-3,4-dihydrothieno[3,2-d]pyrimidin-1(2H)-yl)propanenitrile] | 8.89 nM | 6.74 nM
22 | COc1cc(-c2cc3c(s2)c(=O)n(-c2cncc(Cl)c2C)c(=O)n3CCC#N)c(Cl)cc1F [Example 927, 3-[6-(2-chloro-4-fluoro-5-methoxy-phenyl)-3-(5-chloro-4-methyl-3-pyridyl)-2,4-dioxo-thieno[3,2-d]pyrimidin-1-yl]propanenitrile] | 6.88 nM | 7.02 nM
23 | COc1cc(-c2cc3c(s2)c(=O)n(-c2cncc(Cl)c2Cl)c(=O)n3CCC#N)c(Cl)cc1F [Example 928] | 16.2 nM | 12.2 nM
24 | COc1cc(-c2cc3c(s2)c(=O)n(-c2nncc4ccccc24)c(=O)n3CCC#N)c(Cl)cc1F [Example 929] | 2.76 nM | 5.72 nM
25 | Cc1noc(C)c1-c1cc2c(s1)c(=O)n(-c1cncc3cnn(C)c13)c(=O)n2CCC#N [Example 930] | > 1000 nM | 541 nM

Row | SMILES | EC50 (SARS-CoV-2-NLuc) | IC50 [1]
26 | COc1cc(-c2cc3c(s2)c(=O)n(-c2cc(C)cnn2)c(=O)n3CCC#N)c(Cl)cc1F [Example 931] | 5.48 nM | 2.53 nM
27 | COc1cc(-c2cc3c(s2)c(=O)n(-c2cncc(C)c2C)c(=O)n3CCC#N)c(Cl)cc1F [Example 932] | 2.42 nM | 5.33 nM
28 | Cn1ncc2cncc(-n3c(=O)c4sc(-c5c(Cl)cccc5-c5cncc(C#N)c5)cc4n(CCC#N)c3=O)c21 [Example 934] | 49 nM | 8.3 nM
29 | N#CCCn1c(=O)n(-c2cncc3ccccc23)c(=O)c2sc(-c3c(Cl)cccc3-c3cncc(C#N)c3)cc21 [Example 935] | 24.6 nM | 14.3 nM
30 | COc1cc(-c2cc3c(s2)c(=O)n(-c2cncc4nnn(C)c24)c(=O)n3CCC#N)c(Cl)cc1F [Example 936, 3-(6-(2-chloro-4-fluoro-5-methoxyphenyl)-3-(1-methyl-1H-[1,2,3]triazolo[4,5-c]pyridin-7-yl)-2,4-dioxo-3,4-dihydrothieno[3,2-d]pyrimidin-1(2H)-yl)propanenitrile] | 6.65 nM | 5.46 nM
31 | COc1cc(-c2cc3c(s2)c(=O)n(-c2cncc4c2n(C)c(=O)n4C)c(=O)n3CCC#N)c(Cl)cc1F [Example 937] | 11.4 nM | 8.42 nM
32 | N#CCCn1c(=O)n(-c2cncc3nnn(C4CC4)c23)c(=O)c2sc(-c3ccccc3Cl)cc21 [Example 938] | 77 nM | 17.6 nM
33 | COc1cc(-c2cc3c(s2)c(=O)n(-c2cncc4nnn(C5CC5)c24)c(=O)n3CCC#N)c(Cl)cc1F [Example 939] | 30.3 nM | 11 nM
34 | CCn1c(C)nc2cncc(-n3c(=O)c4sc(-c5cc(OC)c(F)cc5Cl)cc4n(CCC#N)c3=O)c21 [Example 940] | 23.6 nM | 5.28 nM
35 | COc1cc(-c2cc3c(s2)c(=O)n(-c2cncc4nc(C)sc24)c(=O)n3CCC#N)c(Cl)cc1F [Example 941] | 40.1 nM | 7.53 nM
36 | COc1cnc(Cl)c(-c2cc3c(s2)c(=O)n(-c2cncc4ccccc24)c(=O)n3CCC#N)c1 [Example 942] | 13.2 nM | 12 nM
37 | COc1cc(-c2cc3c(s2)c(=O)n(-c2cncc4cccc(F)c24)c(=O)n3CCC#N)c(C#N)cc1F [Example 943] | 10 nM | 10.3 nM
38 | COc1cc(-c2cc3c(s2)c(=O)n(-c2cncc(C)c2Cl)c(=O)n3CCC#N)c(Cl)cc1F [Example 944] | 8.22 nM | 6.67 nM
39 | COc1cc(-c2cc3c(s2)c(=O)n(-c2cncc4ccc(F)cc24)c(=O)n3CCC#N)c(Cl)cc1F [Example 945] | 8.65 nM | 8 nM
40 | COc1cc(-c2cc3c(s2)c(=O)n(-c2cncc4ccc(Cl)cc24)c(=O)n3CCC#N)c(Cl)cc1F [Example 946] | 12.9 nM | 6.82 nM
41 | COc1cc(-c2cc3c(s2)c(=O)n(-c2cncc4ccc(C#CC(C)(C)O)cc24)c(=O)n3CCC#N)c(Cl)cc1F [Example 947] | 14.2 nM | 7.28 nM
42 | N#CCCn1c(=O)n(-c2cncc3ccc(F)cc23)c(=O)c2sc(-c3ccc(F)cc3Cl)cc21 [Example 948] | 12.1 nM | 12.5 nM
43 | COc1cc(-c2ccc3c(=O)n(-c4cncc5ccccc45)c(=O)n(CCC#N)c3c2)c(Cl)cc1F [Example 949] | 757 nM | 147 nM
44 | COc1cc(-c2cc3c(s2)c(=O)n(-c2cncc4c(F)cccc24)c(=O)n3CCC#N)c(Cl)cc1F [Example 950] | 11.8 nM | 4.5 nM
45 | COc1cc(-c2cc3c(s2)c(=O)n(-c2cncc4cc(F)ccc24)c(=O)n3CCC#N)c(Cl)cc1F [Example 951] | 5.38 nM | 9.45 nM
46 | COc1cc(-c2cc3c(s2)c(=O)n(-c2cncc4ncc(C)n24)c(=O)n3CCC#N)c(Cl)cc1F [Example 952] | 16.2 nM | 10.9 nM
47 | COc1cc(-c2cc3c(s2)c(=O)n(-c2cncc(OC4CC4)c2)c(=O)n3CCC#N)c(Cl)cc1F [Example 953] | 36.3 nM | 8.28 nM
48 | COc1cc(-c2cc3c(s2)c(=O)n(-c2cncc4nc(C(F)F)n(C)c24)c(=O)n3CCC#N)c(Cl)cc1F [Example 954] | 26 nM | 14.5 nM
49 | COc1cc(-c2cc3[nH]c(=O)n(-c4cncc5cnn(C6CC6)c45)c(=O)c3s2)c(Cl)cc1F [Example 975, 6-(2-chloro-4-fluoro-5-methoxy-phenyl)-3-(1-cyclopropylpyrazolo[4,3-c]pyridin-7-yl)-1H-thieno[3,2-d]pyrimidine-2,4-dione] | 10.3 nM | 6.33 nM
50 | COc1cc(-c2cc3[nH]c(=O)n(-c4cncc5ccn(C)c(=O)c45)c(=O)c3s2)c(Cl)cc1F [Example 976, 6-(2-chloro-4-fluoro-5-methoxy-phenyl)-3-(6-methyl-5-oxo-2,6-naphthyridin-4-yl)-1H-thieno[3,2-d]pyrimidine-2,4-dione] | 15.4 nM | 8.07 nM
